Measurements as given in the supplement of paper PMC8882468.

Legend:
Assay in all cases: CTG-3D luminescence at 96 h relative to day-0 seeding control (ratio to day 0); higher = more growth / less cytotoxicity; PDxO 3D drug screen, 96 h, CTG-3D normalised to day-0 seeding control.
[1] = system: HCI-017.E2 (organoid from an ER-positive breast cancer xenograft)
[2] = system: HCI-001 (organoid from a triple-negative breast cancer xenograft)
[3] = system: HCI-002 (organoid from a triple-negative breast cancer xenograft)
[4] = system: MDA-MB-231
[5] = system: HCI-023 (organoid from a triple-negative breast cancer xenograft)

C[C@@H]1COCCN1c1cc(C2([S@](C)(=N)=O)CC2)nc(-c2cc[nH]c3nccc2-3)n1 [ceralasertib]
CTG-3D luminescence at 96 h
Settings | 12.5 pM | 0.00025 µM | 0.005 µM | 0.1 µM | 1 µM | 10 µM | 100 µM | 625 fM
[1] | 1.72 | 2.28 | 2.17 | 2.23 | 2.02 | 1.09 | 0.8168 | 2.165
[4] | 4.45 | 4.38 | 4.49 | 4.47 | 4.27 | 3.1 | 1.86 | 4.53

CTG-3D luminescence at 96 h
Settings | 12.5 pM | 0.00025 µM | 0.005 µM | 0.1 µM | 1 µM | 10 µM | 100 µM | 625 fM
[1], days in culture: 85 | 3.08 | 3.11 | 2.49 | 2.26 | 2.3 | 1.08 | 0.827 | 2.52
[2], days in culture: 240 | 1.54 | 0.962 | 0.905 | 0.752 | 1.11 | 0.512 | 0.536 | 1.21
[2], days in culture: 260 | 1.68 | 0.899 | 1.81 | 1.66 | 1.19 | 0.492 | 0.35 | 1.32
[2], days in culture: 269 | 1.61 | 1.65 | 1.82 | 1.79 | 1.06 | 0.544 | 0.577 | 1.54
[2], days in culture: 327 | 1.41 | 1.4 | 1.77 | 1.47 | 1.36 | 0.335 | 0.479 | 1.44
[2], days in culture: 346 | 1.56 | 1.49 | 1.38 | 1.3 | 1.02 | 0.456 | 0.658 | 1.26
[2], days in culture: 364 | 1.44 | 1.19 | 1.23 | 1.16 | 0.732 | 0.301 | 0.319 | 1.52
[3], days in culture: 62 | 2.73 | 2.51 | 2.76 | 3.04 | 1.81 | 1.12 | 0.574 | 2.93
[3], days in culture: 82 | 2.71 | 2.85 | 2.13 | 2.4 | 1.5 | 0.818 | 0.274 | 2.8
[3], days in culture: 91 | 4.35 | 3.4 | 4.02 | 3.58 | 2.23 | 1.3 | 0.523 | 4.14
[3], days in culture: 191 | 2.46 | 2.89 | 2.17 | 2.66 | 1.91 | 0.976 | 0.332 | 2.6
[3], days in culture: 209 | 2.37 | 2.28 | 1.9 | 2 | 1.41 | 0.743 | 0.29 | 2.27
[3], days in culture: 227 | 6.44 | 5.73 | 5.38 | 5.47 | 3.08 | 1.48 | 0.366 | 6.05
[5], days in culture: 111 | 1.26 | 1.25 | 0.897 | 1.31 | 0.756 | 0.365 | 0.252 | 1.5
[5], days in culture: 128 | 1.69 | 1.4 | 1.37 | 1.51 | 0.689 | 0.634 | 0.38 | 1.35

O=C(/C=C/c1cccnc1)NCCCCC1CCN(C(=O)c2ccccc2)CC1 [FK866]
CTG-3D luminescence at 96 h
Settings | 12.5 pM | 0.00025 µM | 0.005 µM | 0.1 µM | 1 µM | 10 µM | 100 µM | 625 fM
[1] | 1.61 | 1.98 | 0.93 | 0.759 | 0.847 | 0.866 | 0.328 | 1.39
[4] | 4.37 | 4.45 | 3.77 | 0.298 | 0.237 | 0.236 | 0.146 | 4.49

CTG-3D luminescence at 96 h
Settings | 12.5 pM | 0.00025 µM | 0.005 µM | 0.1 µM | 1 µM | 10 µM | 100 µM | 625 fM
[1], days in culture: 85 | 2.98 | 3.2 | 2.28 | 0.984 | 0.928 | 0.889 | 0.391 | 2.15
[2], days in culture: 240 | 1.51 | 1.26 | 0.813 | 0.167 | 0.113 | 0.0983 | 0.134 | 1.79
[2], days in culture: 260 | 2.05 | 0.894 | 0.497 | 0.126 | 0.107 | 0.113 | 0.125 | 1.44
[2], days in culture: 269 | 1.52 | 1.61 | 1.1 | 0.0874 | 0.0522 | 0.0578 | 0.0645 | 1.6
[2], days in culture: 327 | 1.45 | 0.495 | 0.617 | 0.125 | 0.0812 | 0.0548 | 0.0869 | 1.78
[2], days in culture: 346 | 1.25 | 1.28 | 0.416 | 0.063 | 0.0715 | 0.0541 | 0.128 | 1.08
[2], days in culture: 364 | 1.18 | 1.03 | 0.913 | 0.0658 | 0.0511 | 0.0476 | 0.0948 | 1.5
[3], days in culture: 62 | 2.68 | 2.55 | 1.43 | 0.0472 | 0.0154 | 0.014 | 0.0284 | 3.07
[3], days in culture: 82 | 2.77 | 3.14 | 0.508 | 0.0661 | 0.0553 | 0.0327 | 0.0409 | 3.06
[3], days in culture: 91 | 3.92 | 3.63 | 1.55 | 0.0716 | 0.0287 | 0.025 | 0.0475 | 4.36
[3], days in culture: 191 | 2.81 | 2.7 | 0.424 | 0.0805 | 0.0595 | 0.0599 | 0.0916 | 2.43
[3], days in culture: 209 | 2.49 | 2.33 | 1.05 | 0.0589 | 0.0401 | 0.0272 | 0.062 | 2.4
[3], days in culture: 227 | 5.05 | 5.39 | 3.02 | 0.104 | 0.0406 | 0.0434 | 0.0754 | 5.65
[5], days in culture: 111 | 1.12 | 1.65 | 0.244 | 0.0924 | 0.0716 | 0.0618 | 0.0864 | 1.25
[5], days in culture: 128 | 1.73 | 1.55 | 0.315 | 0.153 | 0.103 | 0.135 | 0.123 | 1.8
